These are literature values, as cited in PMC10452110, “Indole-3-Acetamido-Polyamines as Antimicrobial Agents and Antibiotic Adjuvants” (Biomolecules, 2023).

Data set [1] relates to Staphylococcus aureus (ATCC 25923). Also on record: method as in Cadelis et al. [15]. Conditions: S. aureus ATCC 25923; ref Cadelis et al. [15]; cited from earlier work.
A further data set has as its system MRSA (ATCC 43300). The settings on record: ref Cadelis et al. [15]; cited from earlier work.
The test system of data set [2] is Pseudomonas aeruginosa (ATCC 27853). Set-up: method as in Cadelis et al. [15]. Conditions: P. aeruginosa ATCC 27853; ref Cadelis et al. [15]; cited from earlier work.
Data set [3] concerns Escherichia coli (ATCC 25922). Set-up: method as in Cadelis et al. [15]. Conditions: E. coli ATCC 25922; ref Cadelis et al. [15]; cited from earlier work.
Data set [4] has as its system Klebsiella pneumoniae (ATCC 700603). Set-up: method as in Cadelis et al. [15]. Conditions: K. pneumoniae ATCC 700603; ref Cadelis et al. [15]; cited from earlier work.
The test system of data set [5] is Acinetobacter baumannii (ATCC 19606). Also on record: method as in Cadelis et al. [15]. The settings on record: A. baumannii ATCC 19606; ref Cadelis et al. [15]; cited from earlier work.
Data set [6] has as its system Candida albicans (ATCC 90028). Also on record: method as in Cadelis et al. [15]. The settings on record: C. albicans ATCC 90028; ref Cadelis et al. [15]; cited from earlier work.
In data set [7] the test system is Cryptococcus neoformans (ATCC 208821). Also on record: method as in Cadelis et al. [15]. Conditions: C. neoformans ATCC 208821; ref Cadelis et al. [15]; cited from earlier work.
Data set [8] deals with HEK293 (human embryonic kidney) cells. Set-up: method as in Cadelis et al. [15]. Conditions: ref Cadelis et al. [15], cited from earlier work; for IC50: read-out: Cytotoxicity: concentration of compound at 50% cytotoxicity (IC50).
Another data set has as its system human red blood cells. Set-up: method as in Cadelis et al. [15]. The settings on record: ref Cadelis et al. [15], cited from earlier work.
For a further data set, the system named is P. aeruginosa ATCC 27853. Also on record: method as in Cadelis et al. [15]. Conditions: doxycycline at 4.5 µM, ref Cadelis et al. [15], cited from earlier work; for Dox/P. a fold change (ratio between intrinsic MIC of the test compound and combination MIC): P. aeruginosa ATCC 27853; for Dox/P. a: concentration required to restore doxycycline activity (combination MIC): P. aeruginosa.

The subject of the next data set is E. coli. Also on record: method as in PMID 33090655. Conditions: ref [15]; cited from earlier work.
The next data set deals with K. pneumoniae. Also on record: method as in PMID 33090655. Conditions: ref [15]; cited from earlier work.

≈ marks a conversion by molar mass, not a printed value. Where two headings read alike, the source gives them in different places. Marks after values point to notes of the source that are not given here.

Regarding `COc1ccc2[nH]cc(CC(=O)NCCCNCCCCNCCCNC(=O)Cc3c[nH]c4ccc(OC)cc34)c2c1` [Compound 16a], in [1], the “MIC S. a” value is 200 µM (≈ 115 µg/mL). In addition, the “MIC MRSA” value in the data set on MRSA (ATCC 43300) is over 55 µM. Also, the “MIC P. a” value in [2] is given as over 200 µM. In addition, the “MIC E. c” value in data set [3] is given as over 200 µM. In addition, in data set [4], the “MIC K. p” value is listed as over 55 µM. Besides, in [5], the “MIC A. b” value was over 55 µM. Further, in [6], the “MIC C. a” value is recorded as over 55 µM. In data set [7], the “MIC C. n” value is recorded as over 55 µM. For the same compound, the IC50 in data set [8] is over 40 µM. Further, the “Hemolysis: concentration of compound at 10% hemolytic activity (HC10)” value (from here on “Hemolysis … at 10% hemolytic activity (HC10)”) in the data set on human red blood cells is over 40 µM. In the data set on P. aeruginosa ATCC 27853, the “Dox/P. a fold change (ratio between intrinsic MIC of the test compound and combination MIC)” value is over 1 fold; the “Dox/P. a: concentration required to restore doxycycline activity (combination MIC)” value (“Dox/P. a: concentration required” for short) was 200 µM.
On to `O=C(Cc1c[nH]c2ccccc12)NCCCNCCCCNCCCNC(=O)Cc1c[nH]c2ccccc12` [Compound 14a], for which the “MIC S. a” value in data set [1] is listed as 200 µM (≈ 103 µg/mL). In addition, the “MIC MRSA” value in the data set with MRSA (ATCC 43300) is reported as over 62 µM. Besides, the “MIC P. a” value in data set [2] is listed as over 200 µM. For the same compound, the “MIC E. c” value in [3] is >200 ^j µM. For the same compound, in [4], the “MIC K. p” value is given as over 62 µM. For the same compound, the “MIC A. b” value in [5] is reported as over 62 µM. Moreover, the “MIC C. a” value in data set [6] is on record as over 62 µM. In addition, the “MIC C. n” value in data set [7] is listed as over 62 µM. Besides, the IC50 in [8] is over 43 µM. In the data set on human red blood cells, the “Hemolysis … at 10% hemolytic activity (HC10)” value was over 43 µM. For the same compound, in the data set on P. aeruginosa ATCC 27853, the “Dox/P. a fold change (ratio between intrinsic MIC of the test compound and combination MIC)” value was over 4 fold; the “Dox/P. a: concentration required” value was 50 µM.
For `O=C(Cc1c[nH]c2ccc(Br)cc12)NCCCNCCCCNCCCNC(=O)Cc1c[nH]c2ccc(Br)cc12` [Compound 15a], the “MIC S. a” value in data set [1] is listed as 25 µM (≈ 16.9 µg/mL). Further, the “MIC MRSA” value in the data set on MRSA (ATCC 43300) is reported as 47.4 µM (≈ 32 µg/mL). The “MIC P. a” value in data set [2] is 200 µM (≈ 135 µg/mL). In [3], the “MIC E. c” value is listed as 200 µM (≈ 135 µg/mL). In addition, the “MIC K. p” value in data set [4] is given as over 48 µM. Besides, the “MIC A. b” value in [5] is given as over 48 µM. Besides, the “MIC C. a” value in [6] is given as over 48 µM. In addition, the “MIC C. n” value in data set [7] was 11.9 µM (≈ 8.03 µg/mL). Also, in [8], the IC50 was over 35 µM and the “Cytotoxicity: concentration of compound at 50% cytotoxicity (IC50)” value is reported as “negligible”. Moreover, the “Hemolysis … at 10% hemolytic activity (HC10)” value with human red blood cells (listed as 5) is listed as “negligible”. The “Hemolysis … at 10% hemolytic activity (HC10)” value in the data set with human red blood cells was over 35 µM. Moreover, in the data set with P. aeruginosa ATCC 27853, the “Dox/P. a fold change (ratio between intrinsic MIC of the test compound and combination MIC)” value is 32 fold; the “Dox/P. a: concentration required” value is 6.25 µM. Moreover, in the data set on E. coli, the “enhancement of the antibiotic action of doxycycline (MIC)” value is 3.125 µM. For the same compound, the “enhancement of the antibiotic action of doxycycline (MIC)” value in the data set with K. pneumoniae is recorded as 6.25 µM.
